The values that follow come from patent US20110213143A1, “COMPOUND HAVING TAFIA INHIBITORY ACTIVITY” (TAISHO PHARMACEUTICAL CO., LTD., priority 2008, published 2011).

Where a name gives a salt, the structure may show the parent alone.

The target in this assay is T1, TAFIa (Homo sapiens, UniProt Q96IY4).
T1 construct: purchased Enzyme Research Laboratories
T1 sequence (Q96IY4 115-423): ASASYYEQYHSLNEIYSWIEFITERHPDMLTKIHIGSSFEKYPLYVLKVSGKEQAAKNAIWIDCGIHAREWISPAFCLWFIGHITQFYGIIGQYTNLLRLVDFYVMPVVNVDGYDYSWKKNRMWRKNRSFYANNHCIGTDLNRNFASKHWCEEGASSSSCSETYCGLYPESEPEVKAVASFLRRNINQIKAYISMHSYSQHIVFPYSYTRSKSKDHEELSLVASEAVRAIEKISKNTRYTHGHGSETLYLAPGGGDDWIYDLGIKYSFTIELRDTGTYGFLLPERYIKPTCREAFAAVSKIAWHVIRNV
Briefly: TAFIa inhibition test (Hip-Arg substrate, absorbance at 405 nm). The assay is classed as biochemical. The following applies: 40 minutes at room temperature, read-out: IC50 (TAFIa inhibitory activity). Here is the method: Test 1 [TAFIa Inhibition Test]
Compounds of the present invention were measured for their TAFIa inhibitory activity as follows based on the method described in Thromb. Haemost. 371 (1988).
(a) Preparation of TAFIa Solution
To 450 μl of TAFI (the product of Enzyme Research Laboratories whose concentration was adjusted to 18 μg/ml with buffer A: 100 mM Tris-HCl buffer, pH 7.4), 45 μl of a thrombomodulin solution (a rabbit lung derived thrombomodulin produced by American Diagnostia whose concentration was adjusted to 1 μg/ml with buffer B: 50 mM Tris-HCl, pH 7.5, containing 0.15 M NaCl) and 45 μl of a thrombin solution (a freeze-dried human plasma derived thrombin produced by Sigma and dissolved in water to have a concentration of 30 μ/ml) were added and the mixture was left to stand for 25 minutes at room temperature.
(b) Method of Measuring TAFIa Inhibitory Activity
To wells on a 96-well microplate, the above-prepared TAFIa solution, a test compound, and a substrate solution (Hip-Arg produced by Sigma and dissolved in buffer C of 100 mM Tris-HCl buffer, pH 8.3, to have a concentration of 3.6 mM) were added in respective amounts of 20 μl/well, 10 μl/well, and 70 μl/well. The individual components were mixed well and the reaction was carried out for 40 minutes at room temperature.
Subsequently, a color former (1% cyanuric chloride in 1,4-dioxane) was added in an amount of 50 μl to each well and the plate was left to stand for 3 minutes at room temperature; then, the absorbance at 405 nm was measured with a microplate reader (Spectramax M2 of Molecular Devices). With the absorbance in the absence of a test compound minus the absorbance in the absence of an enzyme being taken as 100%, the concentration of the compound that inhibited 50% of the reaction (IC50) was calculated from the absorbance in the presence of the test compound minus the absorbance in the absence of the enzyme.
For several compounds of the present invention, the above test was conducted and on the basis of the results of measurements, TAFIa inhibitory activity was calculated to give the results shown in Table 2.
For the molecule `NCCCC(Cc1ncn2c1CCc1ccccc1-2)c1nnn[nH]1` (stereo not drawn) [Example 23, 5-(4,5-dihydroimidazo[1,5-a]quinolin-3-yl)-4-(1H-tetrazol-5-yl)pentan-1-amine], the IC50 amounted to 4400 nM.
Then `CNCCCC(Cc1ncn2c1CCc1ccccc1-2)C(=O)O` (stereo not drawn) [Example 20, 2-(4,5-dihydroimidazo[1,5-a]quinolin-3-ylmethyl)-5-(methylamino)pentanoic acid], with 2300 nM; and `NCCCC(Cc1ncn2c1Cc1ccccc1C2)C(=O)O` (stereo not drawn) [Example 21, 5-amino-2-(5,10-dihydroimidazo[1,5-b]isoquinolin-1-ylmethyl)pentanoic acid], with 1400 nM; and `Nc1cc(C(Cc2ncn3c2CCc2ccccc2-3)C(=O)O)ccn1` (stereo not drawn) [Example 22, 2-(2-aminopyridin-4-yl)-3-(4,5-dihydroimidazo[1,5-a]quinolin-3-yl)propanoic acid dihydrochloride], with 5100 nM.
As to `CCOc1ccc2c(c1)CCc1c(CC(CCCN)C(=O)O)ncn1-2` (stereo not drawn) [Example 14, 5-amino-2-[(7-ethoxy-4,5-dihydroimidazo[1,5-a]quinolin-3-yl)methyl]pentanoic acid], the IC50 was 110 nM.
Regarding `NCCCC(Cc1ncn2c1CCc1cc(OC3CCCCC3)ccc1-2)C(=O)O` (stereo not drawn) [Example 16, 5-amino-2-{[7-(cyclohexyloxy)-4,5-dihydroimidazo[1,5-a]quinolin-3-yl)methyl]pentanoic acid], the IC50 stood at 180 nM.
With `NCCC[C@@H](Cc1ncn2c1CCc1cc(C3CCCCC3)ccc1-2)C(=O)O` [Example 25, (2S)-5-amino-2-[(7-cyclohexyl-4,5-dihydroimidazo[1,5-a]quinolin-3-yl)methyl]pentanoic acid dihydrochloride], the IC50 is 28 nM.
The figure for `Cc1ccc2c(c1)CCc1c(CC(CCCN)C(=O)O)ncn1-2` (stereo not drawn) [Example 11, 5-amino-2-[(7-methyl-4,5-dihydroimidazo[1,5-a]quinolin-3-yl)methyl]pentanoic acid dihydrochloride] is 61 nM; for `NCCCC(Cc1ncn2c1CCc1ccncc1-2)C(=O)O` (stereo not drawn) [Example 6, 5-amino-2-(4,5-dihydroimidazo[1,5-a] [1,7]naphthyridin-3-ylmethyl)pentanoic acid] it is 1600 nM.
Then `Cc1cccc2c1CCc1c(CC(CCCN)C(=O)O)ncn1-2` (stereo not drawn) [Example 10, 5-amino-2-[(6-methyl-4,5-dihydroimidazo[1,5-a]quinolin-3-yl)methyl]pentanoic acid], with 150 nM.
The figure for `NCCC[C@@H](Cc1ncn2c1CCc1cc(F)ccc1-2)C(=O)O` [Example 26, (2S)-5-amino-2-[(7-fluoro-4,5-dihydroimidazo[1,5-a]quinolin-3-yl]methyl}pentanoic acid dihydrochloride] is 72 nM.
As to `NCCCC(Cc1ncn2c1COc1ccccc1-2)C(=O)O` (stereo not drawn) [Example 5, 5-amino-2-(4H-imidazo[5,1-c][1,4]benzoxazin-3-ylmethyl)pentanoic acid], the IC50 stood at 1100 nM.
`NCCC[C@H](Cc1ncn2c1CCc1ccccc1-2)C(=O)O` [Example 3, (2R)-5-amino-2-(4,5-dihydroimidazo[1,5-a]quinolin-3-ylmethyl)pentanoic acid]: the IC50 was 860 nM.
Then `NCCC[C@@H](Cc1ncn2c1CCc1ccccc1-2)C(=O)O` [Example 2, (2S)-5-amino-2-(4,5-dihydroimidazo[1,5-a]quinolin-3-ylmethyl)pentanoic acid], with 63 nM.
For `Cc1ccc2c(c1)CCc1c(C[C@H](CCCN)C(=O)O)ncn1-2` [Example 29, (2S)-5-amino-2-[(7-methyl-4,5-dihydroimidazo[1,5-a]quinolin-3-yl)methyl]pentanoic acid dihydrochloride], the half-inhibitory concentration (IC50) worked out at 25 nM.
As to `NCCCC(Cc1ncn2c1CCc1ncccc1-2)C(=O)O` (stereo not drawn) [Example 19, 5-amino-2-(4,5-dihydroimidazo[1,5-a] [1,5]naphthyridin-3-ylmethyl)pentanoic acid], the IC50 turned out to be 580 nM.
The figure for `CCc1cccc2c1CCc1c(CC(CCCN)C(=O)O)ncn1-2` (stereo not drawn) [Example 8, 5-amino-2-[(6-ethyl-4,5-dihydroimidazo[1,5-a]quinolin-3-yl)methyl]pentanoic acid] is 270 nM; for `Cc1cccc2c1-n1cnc(CC(CCCN)C(=O)O)c1CC2` (stereo not drawn) [Example 7, 5-amino-2-[(9-methyl-4,5-dihydroimidazo[1,5-a]quinolin-3-yl)methyl]pentanoic acid dihydrochloride] it is 6400 nM; for `NCCCCC(C(=O)O)c1ncn2c1CCc1ccccc1-2` (stereo not drawn) [Example 13, 6-amino-2-(4,5-dihydroimidazo[1,5-a]quinolin-3-yl)hexanoic acid] it is 3300 nM.
The figure for `CCCc1ccc2c(c1)CCc1c(C[C@H](CCCN)C(=O)O)ncn1-2` [Example 30, (S)-5-amino-2-((7-propyl-4,5-dihydroimidazo[1,5-a]quinolin-3-yl)methyl)pentanoic acid dihydrochloride] is 28 nM.
For the molecule `NCCCC(Cc1ncn2c1CCc1ccccc1-2)C(=O)O` (stereo not drawn) [Example 1, 5-amino-2-(4,5-dihydroimidazo[1,5-a]quinolin-3-ylmethyl)pentanoic acid], the IC50 is 95 nM.
Then `NCCCC(Cc1ncn2c1CCc1cc(C(F)(F)F)ccc1-2)C(=O)O` (stereo not drawn) [Example 27, 5-amino-2-{[7-(trifluoromethyl)-4,5-dihydroimidazo[1,5-a]quinolin-3-yl]methyl}pentanoic acid dihydrochloride], with 410 nM.
The figure for `NCCCC(Cc1ncn2c1CCCc1ccccc1-2)C(=O)O` (stereo not drawn) [Example 4, 5-amino-2-(5,6-dihydro-4H-imidazo[1,5-a] [1]benzazepin-3-ylmethyl)pentanoic acid] is 3300 nM; for `NCCCC(Cc1ncn2c1CCc1c(Cl)cccc1-2)C(=O)O` (stereo not drawn) [Example 9, 5-amino-2-[(6-chloro-4,5-dihydroimidazo[1,5-a]quinolin-3-yl)methyl]pentanoic acid] it is 190 nM.
Take `NCCCC(Cc1ncn2c1CCc1cc(-c3ccccc3)ccc1-2)C(=O)O` (stereo not drawn) [Example 15, 5-amino-2-[(7-phenyl-4,5-dihydroimidazo[1,5-a]quinolin-3-yl)methyl]pentanoic acid dihydrochloride]: the IC50 worked out at 140 nM.
As to `NCCC[C@@H](Cc1ncn2c1CCc1cc(CCC3CCCCC3)ccc1-2)C(=O)O` [Example 24, (25)-5-amino-2-{[7-(2-cyclohexylethyl)-4,5-dihydroimidazo[1,5-a]quinolin-3-yl]methyl}pentanoic acid dihydrochloride], the IC50 was determined as 43 nM.
The figure for `CCCc1ccc2c(c1)CCc1c(CC(CCCN)C(=O)O)ncn1-2` (stereo not drawn) [Example 17, 5-amino-2-[(7-propyl-4,5-dihydroimidazo[1,5-a]quinolin-3-yl)methyl]pentanoic acid dihydrochloride] is 67 nM; for `Cc1ccc2c(c1)-n1cnc(CC(CCCN)C(=O)O)c1CC2` (stereo not drawn) [Example 12, 5-amino-2-[(8-methyl-4,5-dihydroimidazo[1,5-a]quinolin-3-yl)methyl]pentanoic acid] it is 1800 nM.
Turning to `CC(C)c1ccc2c(c1)CCc1c(C[C@H](CCCN)C(=O)O)ncn1-2` [Example 28, (2S)-5-amino-2-[(7-isopropyl-4,5-dihydroimidazo[1,5-a]quinolin-3-yl)methyl]pentanoic acid dihydrochloride], the IC50 turned out to be 33 nM.
The figure for `NCCCC(Cc1ncn2c1CNc1ccccc1-2)C(=O)O` (stereo not drawn) [Example 18, 5-amino-2-(4,5-dihydroimidazo[1,5-a]quinoxalin-3-ylmethyl)pentanoic acid] is 630 nM.
